Measured values taken from US20250179059A1 (The Regents of the University of California, priority 2021, published 2025).
Where two headings read alike, the source gives them in different places.

Tests used:
[1] = target: T1, human BRD4 bromodomain II (Homo sapiens, UniProt O60885); assay: Bromodomain binding assay (AlphaScreen), BRD4 BDII
T1 construct: human BRD4 bromodomain II [based on Genbank NM_058243, residues 349-460]; host or cells: E. coli
Procedure, shortened: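 Read-out is AlphaScreen signal (ex 680 nm, em 520-620 nm) from streptavidin donor beads on a biotinylated acetylated histone H4 (aa 1-21) peptide and nickel acceptor beads on the His6-tagged bromodomain. IC50 values come from curve fits of percentage peptide binding against compound concentration.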

[2] = test system: human SKM-1 acute myeloid leukemia cells; assay: SKM-1 antiproliferation cell-based assay (ATPlite); conditions: Homo sapiens
Procedure, shortened: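 Log-phase cells in RPMI 1640/15% FBS were seeded at 34722 cells/mL and exposed for 4 days to nine-concentration DMSO serial dilutions in triplicate. Viability was read as ATP luminescence (ATPlite 1step), and IC50 values came from variable-slope non-linear regression.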

[3] = AlphaScreen assay, Table C2, read-out: BRD4 BDII IC50
[4] = SKM-1, 96 h, SKM-1 antiproliferation assay, 4 days, Table C2
[5] = BRD4 BDII AlphaScreen assay, read-out: BRD4 BD2 IC50
[6] = SKM-1, SKM-1 antiproliferation assay

IC50 [1, 3]	GI50 [2, 4]	IC50 [1, 5]	GI50 [2, 6]	Compound
–	–	1 to 10 nM	0.3 to 30 nM	CNc1ncc(-c2cc(F)cc(-c3ccc(-n4ccn(C)c4=O)c(Cl)c3)c2O)cc1N1CCC2(CCCN2C(C)C)C1 (stereo not drawn) [Example 970, 1-(3-chloro-5′-fluoro-2′-hydroxy-3′-(5-(1-isopropyl-1,7-diazaspiro[4.4]nonan-7-yl)-6-(methylamino)pyridin-3-yl)-[1,1′-biphenyl]-4-yl)-3-methyl-1H-imidazol-2(3H)-one]
–	–	0.01 to 1 nM	30 to 300 nM	Cn1ccn(-c2ccc(-c3cc(F)cc(-c4cc(Cl)c(F)c(N5CCN(C(C)(C)C)CC5)c4)c3O)cc2Cl)c1=O [Example 904]
–	–	1 to 10 nM	0.3 to 30 nM	Cn1ccn(-c2ccc(-c3cc(F)cc(-c4cccc(C5=CCN(C(C)(C)C)CC5)c4)c3O)cc2Cl)c1=O [Example 951, 1-(3″-(1-(tert-butyl)-1,2,3,6-tetrahydropyridin-4-yl)-3-chloro-5′-fluoro-2′-hydroxy-[1,1′:3′,1″-terphenyl]-4-yl)-3-methyl-1H-imidazol-2(3H)-one]
–	–	0.01 to 1 nM	0.3 to 30 nM	Cc1cc(-c2ccc(-n3ccn(C)c3=O)c(Cl)c2)c(O)c(-c2cc(N3CCN(C(C)(C)C)CC3)c3nccn3c2)n1 [Example 971, 1-(4-(2-(8-(4-(tert-butyl)piperazin-1-yl)imidazo[1,2-a]pyridin-6-yl)-3-hydroxy-6-methylpyridin-4-yl)-2-chlorophenyl)-3-methyl-1H-imidazol-2(3H)-one]
–	–	1 to 10 nM	0.3 to 30 nM	[2H]C([2H])([2H])n1ccn(-c2ccc(-c3cc(F)cc(-c4cccc(N5CCN(C(C)(C)C)CC5)c4)c3O)cc2Cl)c1=O [Example 886]
–	–	1 to 10 nM	0.3 to 30 nM	COc1ncc(-c2nc(C)cc(-c3ccc(-n4ccn(C)c4=O)c(F)c3)c2O)cc1N1CCN(C(C)(C)C)CC1 [Example 997, 1-(4-(5′-(4-(tert-butyl)piperazin-1-yl)-3-hydroxy-6′-methoxy-6-methyl-[2,3′-bipyridin]-4-yl)-2-fluorophenyl)-3-methyl-1H-imidazol-2(3H)-one]
0.01 to 1 nM	0.3 to 30 nM	–	–	Cn1ccn(-c2ccc(-c3cc(F)cc(-c4cnnc(N5CCN(C(C)(C)C)CC5)c4)c3O)cc2Cl)c1=O [Example 798, 1-(3′-(6-(4-(tert-butyl)piperazin-1-yl)pyridazin-4-yl)-3-chloro-5′-fluoro-2′-hydroxy-[1,1′-biphenyl]-4-yl)-3-methyl-1H-imidazol-2(3H)-one]
–	–	> 100 nM	300 to 3000 nM	Cc1cc(-c2cc(F)cc(-c3cccc(N4CCN(C(C)(C)C)CC4)c3)c2O)ncc1-n1ccn(C)c1=O [Example 940, 1-(6-(3′-(4-(tert-butyl)piperazin-1-yl)-5-fluoro-2-hydroxy-[1,1′-biphenyl]-3-yl)-4-methylpyridin-3-yl)-3-methyl-1H-imidazol-2(3H)-one]
0.01 to 1 nM	0.3 to 30 nM	–	–	Cn1ccn(-c2ccc(-c3cc(F)cc(-c4ccnc(N5CCC6(CCN6)C5)c4)c3O)cc2Cl)c1=O (stereo not drawn) [Example 641, 1-(3′-(2-(1,6-diazaspiro[3.4]octan-6-yl)pyridin-4-yl)-3-chloro-5′-fluoro-2′-hydroxy-[1,1′-biphenyl]-4-yl)-3-methyl-1H-imidazol-2(3H)-one]
0.01 to 1 nM	0.3 to 30 nM	–	–	COCCCN1CCN(c2cc(-c3cc(F)cc(-c4ccc(-n5ccn(C)c5=O)c(Cl)c4)c3O)ccn2)CC1 [Example 633, 1-(3-chloro-5′-fluoro-2′-hydroxy-3′-(2-(4-(3-methoxypropyl)piperazin-1-yl)pyridin-4-yl)-[1,1′-biphenyl]-4-yl)-3-methyl-1H-imidazol-2(3H)-one]
1 to 10 nM	30 to 300 nM	–	–	Cc1ccc(-c2cc(F)cc(-c3ccc(-n4ccn(C)c4=O)c(Cl)c3)c2O)cc1N1CC(C)(O)C1 [Example 845, 1-(3-chloro-5′-fluoro-2′-hydroxy-3″-(3-hydroxy-3-methylazetidin-1-yl)-4″-methyl-[1,1′:3′,1″-terphenyl]-4-yl)-3-methyl-1H-imidazol-2(3H)-one]
1 to 10 nM	30 to 300 nM	–	–	COc1ncc(-c2cc(F)cc(-c3ccc(-n4ccn(C)c4=O)c(Cl)c3)c2O)cc1N1CC(C)(O)C2(CC2)C1 (stereo not drawn) [Example 833, 1-(3-chloro-5′-fluoro-2′-hydroxy-3′-(5-(7-hydroxy-7-methyl-5-azaspiro[2.4]heptan-5-yl)-6-methoxypyridin-3-yl)-[1,1′-biphenyl]-4-yl)-3-methyl-1H-imidazol-2(3H)-one]

The remaining lines, values behind:

Compound	IC50 [1, 3]	GI50 [2, 4]	IC50 [1, 5]	GI50 [2, 6]
Cn1ccn(-c2ccc(-c3cc(F)cc(-c4ccnc(N5CC6(CNC6)C5)c4)c3O)cc2Cl)c1=O [Example 455, 1-(3′-(2-(2,6-diazaspiro[3.3]heptan-2-yl)pyridin-4-yl)-3-chloro-5′-fluoro-2′-hydroxy-[1,1′-biphenyl]-4-yl)-3-methyl-1H-imidazol-2(3H)-one]	1 to 10 nM	30 to 300 nM	–	–
Cc1cc(-c2cc(-c3ccn[nH]3)cc(N3CCNCC3)c2)c(O)c(-c2ccc(-n3ccn(C)c3=O)c(Cl)c2)c1 [Example 569]	1 to 10 nM	30 to 300 nM	–	–
CC1=CCN(c2ccc(-c3cc(F)cc(-c4ccnc(N5CCNCC5)c4)c3O)cc2Cl)C1=O [Example 366, 1-(3-chloro-5′-fluoro-2′-hydroxy-3′-(2-(piperazin-1-yl)pyridin-4-yl)-[1,1′-biphenyl]-4-yl)-3-methyl-1,5-dihydro-2H-pyrrol-2-one]	1 to 10 nM	30 to 300 nM	–	–
COC(=O)c1cc(-c2cccc(-c3ccc(NC(C)=O)c(F)c3)c2O)cc(N2CCNCC2)n1 [Example 260, Methyl 4-(4′-acetamido-3′-fluoro-2-hydroxy-[1,1′-biphenyl]-3-yl)-6-(piperazin-1-yl)picolinate]	> 100 nM	≥ 3000 nM	–	–
C[C@@H]1CN(c2cc(-c3cc(F)cc(-c4ccc(-n5ccn(C)c5=O)c(Cl)c4)c3O)cc3[nH]ncc23)C[C@H](C)N1 [Example 577]	0.01 to 1 nM	0.3 to 30 nM	–	–
CC(=O)Nc1ccc(-c2cccc(-c3cc(C#N)cc(N4CCNCC4)c3)c2O)cc1F [Example 234, N-(3″-cyano-3-fluoro-2′-hydroxy-5″-(piperazin-1-yl)-[1,1′:3′,1″-terphenyl]-4-yl)acetamide]	1 to 10 nM	30 to 300 nM	–	–
CC(=O)Nc1ccc(-c2cc(F)cc(-c3cccc(N4CCNCC4)c3)c2O)cc1F [Example 180, N-(3,5′-difluoro-2′-hydroxy-3″-(piperazin-1-yl)-[1,1′:3′,1″-terphenyl]-4-yl)acetamide]	1 to 10 nM	300 to 3000 nM	–	–
[2H]C([2H])([2H])n1ccn(-c2ccc(-c3cc(F)cc(-c4ccnc(N5CCC[C@H](NC)C5)c4)c3O)cc2Cl)c1=O [Example 456, (S)-1-(3-chloro-5′-fluoro-2′-hydroxy-3′-(2-(3-(methylamrno)piperidin-1-yl)pyridin-4-yl)-[1,1′-biphenyl]-4-yl)-3-deuteromethyl-1H-imidazol-2(3H)-one]	0.01 to 1 nM	0.3 to 30 nM	–	–
CN1CCN(c2ccc(-c3cccc(-c4cccc(N5CCNCC5)c4)c3O)cc2F)C1=O [Example 164, 1-(3-Fluoro-2′-hydroxy-3″-(piperazin-1-yl)-[1,1′:3′,1″-terphenyl]-4-yl)-3-methylimidazolidin-2-one]	1 to 10 nM	300 to 3000 nM	–	–
Cn1ccn(-c2ccc(-c3cc(F)cc(-c4cncc(N5CCNCC5)c4)c3O)cc2Cl)c1=O [Example 472, 1-(3-chloro-5′-fluoro-2′-hydroxy-3′-(5-(piperazin-1-yl)pyridin-3-yl)-[1,1′-biphenyl]-4-yl)-^3-methyl-1H-imidazol-2(3H)-one]	1 to 10 nM	0.3 to 30 nM	–	–
Cn1ccn(-c2ccc(-c3cc(F)cc(-c4cc(N5CC[C@H](N)C5)c5nc[nH]c5c4)c3O)cc2Cl)c1=O [Example 533, (S)-1-(3′-(4-(3-aminopyrrolidin-1-yl)-1H-benzo[d]imidazol-6-yl)-3-chloro-5′-fluoro-2′-hydroxy-[1,1′-biphenyl]-4-yl)-3-methyl-1H-imidazol-2(3H)-one]	1 to 10 nM	0.3 to 30 nM	–	–
O=C1CCCN1c1ccc(-c2cc(F)cc(-c3ccnc(N4CCNCC4)c3)c2O)cc1Cl [Example 217, 1-(3-chloro-5′-fluoro-2′-hydroxy-3′-(2-(piperazin-1-yl)pyridin-4-yl)-[1,1′-biphenyl]-4-yl)pyrrolidin-2-one]	1 to 10 nM	300 to 3000 nM	–	–
Cn1ccn(-c2ccc(-c3cc(F)cc(-c4cc(N5CCN6CCCC6C5)c5cn[nH]c5c4)c3O)cc2Cl)c1=O (stereo not drawn) [Example 606, 1-(3-chloro-5′-fluoro-3′-(4-(hexahydropyrrolo[1,2-a]pyrazin-2(1H)-yl)-1H-indazol-6-yl)-2′-hydroxy-[1,1′-biphenyl]-4-yl)-3-methyl-1H-imidazol-2(3H)-one]	0.01 to 1 nM	0.3 to 30 nM	–	–
C[C@@H]1CN(c2cc(-c3cc(F)cc(-c4ccc(N5CCN(C)C5=O)c(Cl)c4)c3O)ccn2)CCN1 [Example 359, (R)-1-(3-chloro-5′-fluoro-2′-hydroxy-3′-(2-(3-methylpiperazin-1-yl)pyridin-4-yl)-[1,1′-biphenyl]-4-yl)-3-methylimidazolidin-2-one]	1 to 10 nM	30 to 300 nM	–	–
CN1CCN(c2ccc(-c3cccc(-c4cnnc(N5CCNCC5)c4)c3O)cc2Cl)C1=O [Example 343, 1-(3-chloro-2′-hydroxy-3′-(6-(piperazin-1-yl)pyridazin-4-yl)-[1,1′-biphenyl]-4-yl)-3-methylimidazolidin-2-one]	1 to 10 nM	30 to 300 nM	–	–
